From patent US20230374035A1, “RAS INHIBITORS” (Revolution Medicines, Inc., priority 2019, published 2023)
pIC50: −log10 of the molar value. Like-named read-outs stand apart in the source and are kept apart here.

Tests used:
KRAS G12C = KRAS G12C (Homo sapiens, UniProt P01116+P62937, G12C); assay: Disruption of BRAF RBD interaction with K-Ras (FRET / MOA assay); assay type: biochemical
Procedure: (§1) Compound is present in plate wells as a 10-point 3-fold dilution series starting at a final concentration of 30 μM. […] Compounds that facilitate disruption of a Ras:RAF complex are identified as those eliciting a decrease in the TR-FRET ratio relative to DMSO control wells.
(§2) Note—The following protocol describes a procedure for monitoring disruption of K-Ras G12C (GMP-PNP) binding to BRAF^RBD by a compound of the invention. This protocol may also be executed substituting other Ras proteins or nucleotides.
(§3) The purpose of this biochemical assay was to measure the ability of test compounds to facilitate ternary complex formation between a nucleotide-loaded K-Ras isoform and Cyclophilin A; the resulting ternary complex disrupts binding to a BRAF^RBD construct, inhibiting K-Ras signaling through a RAF effector. Data is reported as IC50 values.
(§4) Compound was present in plate wells as a 10-point 3-fold dilution series starting at a final concentration of 30 μM. […] Compounds that facilitate disruption of a K-Ras:RAF complex were identified as those eliciting a decrease in the TR-FRET ratio relative to DMSO control wells.

KRAS G12V = KRAS G12V (Homo sapiens, UniProt P01116+P62937, G12V); assay: as above; assay type: biochemical; details: read-out: KRAS G12V FRET data IC50
Procedure: as §1, §2, §3, §4

KRAS G13C = KRAS G13C (Homo sapiens, UniProt P01116+P62937, G13C); assay: as above; assay type: biochemical; details: read-out: KRAS G13C FRET data IC50
Procedure: as §1, §2, §3, §4

NRAS G12C = NRAS G12C (Homo sapiens, UniProt P01111+P62937, G12C); assay: Disruption of BRAF RBD interaction with Ras (FRET / MOA assay); assay type: biochemical
Summary of the method: (§5)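 TR-FRET readout of BRAF RBD binding to nucleotide-loaded Ras (GMP-PNP), where compound promotes a ternary complex with Cyclophilin A that displaces RAF. Compound tested as a 10-point 3-fold dilution series from 30 μM final. Disruption is a drop in TR-FRET ratio versus DMSO wells; IC50 reported.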

NCI-H358 (K-Ras G12C) = assay: CellTiter-Glo Cell Viability Assay; assay type: cell-based; details: Homo sapiens, NCI-H358, 120 h; H358, 5-day treatment
Procedure: (§6) Determination of Cell Viability in RAS Mutant Cancer Cell Lines
(§7) Protocol: CellTiter-Glo® Cell Viability Assay
(§8) Note—The following protocol describes a procedure for monitoring cell viability of K-Ras mutant cancer cell lines in response to a compound of the invention. Other RAS isoforms may be employed, though the number of cells to be seeded will vary based on cell line used.
(§9) Test compounds (132.5 nl) were directly dispensed into the assay plates containing cells. […] On day 5, assay plates and their contents were equilibrated to room temperature for approximately 30 minutes. […] Luminescence was measured using the PerkinElmer Enspire. Data were normalized by the following: (Sample signal/Avg. DMSO)*100. The data were fit using a four-parameter logistic fit.

[1] = tested on: Capan-2 KRASG12V/wt xenograft model; assay: Tumor growth in Capan-2 CDX model; assay type: in vivo, BALB/c nude mice; details: Compound A 100 mg/kg po bid daily, RMC-4550 20 mg/kg po every other day
Procedure: Capan-2 cells were implanted in 50% Matrigel. Animals were randomized and treatment was initiated at average tumor volume of ˜180 mm3. […] Ns=no significance; ***p<0.001 by one-way ANOVA.
Once tumors reached an average size of ˜180 mm3, mice were randomized to treatment groups to start the administration of test articles or vehicle. […] Body weight and tumor volume (using calipers) was measured twice weekly until study endpoints.

NRAS Q61R = NRAS Q61R (Homo sapiens, UniProt P01111+P62937, Q61R); assay: Disruption of BRAF RBD interaction with Ras (FRET / MOA assay); assay type: biochemical
Summary of the method: as §5

Capan-1 (K-Ras G12V) = assay: CellTiter-Glo Cell Viability Assay; assay type: cell-based; details: Homo sapiens, 120 h; Capan-1, 5-day treatment
Procedure: as §6, §7, §8, §9

KRAS Q61H = KRAS Q61H (Homo sapiens, UniProt P01116+P62937, Q61H); assay: Disruption of BRAF RBD interaction with K-Ras (FRET / MOA assay); assay type: biochemical
Procedure: as §1, §2, §3, §4

NRAS Q61K = NRAS Q61K (Homo sapiens, UniProt P01111+P62937, Q61K); assay: Disruption of BRAF RBD interaction with Ras (FRET / MOA assay); assay type: biochemical
Summary of the method: as §5

NRAS WT = NRAS WT (Homo sapiens, UniProt P01111+P62937); assay: as above; assay type: biochemical
Summary of the method: as §5

SWi573 = details: cited from earlier work
[2] = read-out: KRAS G12C FRET data IC50
[3] = read-out: NRAS Q61R FRET data IC50
[4] = read-out: NRAS Q61K FRET data IC50

Sequence of NRAS Q61K (P01111 whole entry Q61K): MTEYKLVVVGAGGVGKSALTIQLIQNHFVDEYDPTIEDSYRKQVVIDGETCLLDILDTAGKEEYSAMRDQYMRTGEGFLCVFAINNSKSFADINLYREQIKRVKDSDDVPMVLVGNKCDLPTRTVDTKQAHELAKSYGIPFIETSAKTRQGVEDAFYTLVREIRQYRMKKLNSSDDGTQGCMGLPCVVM
Sequence of NRAS Q61K (P62937 whole entry): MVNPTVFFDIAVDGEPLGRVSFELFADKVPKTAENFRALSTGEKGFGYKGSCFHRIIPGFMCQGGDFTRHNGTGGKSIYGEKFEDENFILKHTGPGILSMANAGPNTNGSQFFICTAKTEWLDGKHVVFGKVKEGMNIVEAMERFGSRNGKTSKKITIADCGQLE
Sequence of NRAS Q61R (P01111 whole entry Q61R): as the sequence (P01111 whole entry Q61K) above, with K61R counted along it
Sequence of NRAS Q61R (P62937 whole entry): as the sequence (P62937 whole entry) above
Sequence of KRAS G12C (P01116 1-188 isoform P01116-2 G12C): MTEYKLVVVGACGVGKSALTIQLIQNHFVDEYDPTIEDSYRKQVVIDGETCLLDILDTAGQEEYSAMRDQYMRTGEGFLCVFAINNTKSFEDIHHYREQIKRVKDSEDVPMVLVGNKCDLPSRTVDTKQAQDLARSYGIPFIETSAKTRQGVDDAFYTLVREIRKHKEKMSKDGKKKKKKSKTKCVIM
Sequence of KRAS G12C (P62937 whole entry): as the sequence (P62937 whole entry) above
Sequence of NRAS G12C (P01111 whole entry G12C): as the sequence (P01111 whole entry Q61K) above, with G12C, K61Q counted along it
Sequence of NRAS G12C (P62937 whole entry): as the sequence (P62937 whole entry) above
Sequence of KRAS G13C (P01116 1-188 isoform P01116-2 G13C): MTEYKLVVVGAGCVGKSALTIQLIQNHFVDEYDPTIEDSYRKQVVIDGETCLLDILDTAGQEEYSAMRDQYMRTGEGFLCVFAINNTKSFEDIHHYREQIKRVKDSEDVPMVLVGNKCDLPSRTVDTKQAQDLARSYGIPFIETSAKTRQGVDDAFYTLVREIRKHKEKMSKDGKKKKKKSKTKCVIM
Sequence of KRAS G13C (P62937 whole entry): as the sequence (P62937 whole entry) above
Sequence of KRAS Q61H (P01116 1-188 isoform P01116-2 Q61H): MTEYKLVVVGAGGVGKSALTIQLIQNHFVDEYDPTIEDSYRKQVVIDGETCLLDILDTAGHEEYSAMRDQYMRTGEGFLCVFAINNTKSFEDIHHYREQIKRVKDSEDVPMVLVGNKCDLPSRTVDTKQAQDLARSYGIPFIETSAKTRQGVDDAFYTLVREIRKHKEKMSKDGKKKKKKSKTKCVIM
Sequence of KRAS Q61H (P62937 whole entry): as the sequence (P62937 whole entry) above
Sequence of KRAS G12V (P01116 1-188 isoform P01116-2 G12V): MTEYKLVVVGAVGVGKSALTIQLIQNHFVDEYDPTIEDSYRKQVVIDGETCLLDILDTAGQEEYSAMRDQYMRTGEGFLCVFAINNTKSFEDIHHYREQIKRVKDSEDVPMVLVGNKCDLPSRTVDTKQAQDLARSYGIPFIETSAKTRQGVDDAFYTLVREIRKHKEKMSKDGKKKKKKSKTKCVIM
Sequence of KRAS G12V (P62937 whole entry): as the sequence (P62937 whole entry) above
Sequence of NRAS WT (P01111 whole entry): as the sequence (P01111 whole entry Q61K) above, with K61Q counted along it
Sequence of NRAS WT (P62937 whole entry): as the sequence (P62937 whole entry) above

Structure (SMILES): CCn1c(-c2cccnc2[C@H](C)OC)c2c3cc(ccc31)-c1csc(n1)C[C@H](NC(=O)OC(C)(C)C)C(=O)N1CC[C@H](C)[C@H](N1)C(=O)OCC(C)(C)C2
- ring closure, yield of all isomers (from CCn1c(-c2cccnc2[C@H](C)OC)c(CC(C)(C)COC(=O)[C@H]2NN(C(=O)[C@H](Cc3nc(Br)cs3)NC(=O)OC(C)(C)C)CC[C@@H]2C)c2cc(B3OC(C)(C)C(C)(C)O3)ccc21, cc_pd bond, Pd(DTBpf)Cl2, K3PO4, dioxane, 17.5 mM, 60.0 °C, 1.0 h): 44.7%

Structure (SMILES): CCn1c(-c2cccnc2[C@H](C)OC)c2c3cc(ccc31)-c1cc(O)cc(c1)C[C@H](NC(=O)[C@H](C(C)C)N(C)C(=O)[C@@H]1CN(C(=O)OC)C[C@@H]1C)C(=O)N1CCC[C@H](N1)C(=O)OCC(C)(C)C2 (atropisomer, axis not shown) [Compound A325]
- pIC50 (KRAS G12C; [2]): > 8.00
- pIC50 (KRAS G12V): > 8.00
- pIC50 (KRAS G13C): > 8.00
- pIC50 (NRAS G12C): > 8.00
- pIC50 (NCI-H358 (K-Ras G12C)): > 8.00

Structure (SMILES): CCn1c(-c2cc(N3CCN(C(=O)OCc4ccccc4)CC3)cnc2[C@H](C)OC)c2c3cc(ccc31)-c1csc(n1)C[C@H](NC(=O)OC(C)(C)C)C(=O)N1CCC[C@H](N1)C(=O)OCC(C)(C)C2
- ring closure, yield of all isomers (from CCn1c(-c2cc(N3CCN(C(=O)OCc4ccccc4)CC3)cnc2[C@H](C)OC)c(CC(C)(C)CO)c2cc(-c3csc(C[C@H](NC(=O)OC(C)(C)C)C(=O)N4CCC[C@@H](C(=O)O)N4)n3)ccc21, ester bond, EDCl/HOBt/DIPEA, MeCN, 10.34 mM, 25.0 °C, 16.0 h): 54.8%

Structure (SMILES): CCn1c(-c2cccnc2[C@H](C)OC)c2c3cc(ccc31)-c1cc(O)cc(c1)C[C@H](NC(=O)[C@H](C(C)C)N(C)C(=O)[C@@H]1C[C@@H]1O)C(=O)N1CCC[C@H](N1)C(=O)OCC(C)(C)C2 (atropisomer, axis not shown) [Compound A323]
- pIC50 (KRAS G12C; [2]): > 8.00
- pIC50 (NRAS G12C): > 8.00

Structure (SMILES): CCn1c(-c2cccnc2[C@H](C)OC)c2c3cc(ccc31)-c1csc(n1)[C@@H](OC)[C@H](N(Cc1ccccc1)Cc1ccccc1)C(=O)N1CCC[C@H](N1)C(=O)OCC(C)(C)C2
- ring closure, yield of all isomers (from CCn1c(-c2cccnc2[C@H](C)OC)c(CC(C)(C)COC(=O)[C@@H]2CCCN(C(=O)[C@H]([C@H](OC)c3nc(Br)cs3)N(Cc3ccccc3)Cc3ccccc3)N2)c2cc(B3OC(C)(C)C(C)(C)O3)ccc21, cc_pd bond, Pd(DtBPF)Cl2, dioxane, 40.0 mM, 80.0 °C, 2.0 h): 44.4%

Structure (SMILES): CCn1c(-c2cccnc2[C@H](C)OC)c2c3cc(ccc31)-c1cc(O)cc(c1)C[C@H](NC(=O)[C@H](C(C)C)N(C)C(=O)[C@H]1CCN(C(=O)C(C)(C)NC)C1)C(=O)N1CCC[C@H](N1)C(=O)OCC(C)(C)C2 (atropisomer, axis not shown) [Compound A381]
- pIC50 (KRAS G13C): > 8.00

Structure (SMILES): CC(C)[Si](Oc1cc2cc(c1)-c1ccc3[nH]c(I)c(c3c1)CC(C)(C)COC(=O)[C@@H]1CCCN(N1)C(=O)[C@@H](NC(=O)OC(C)(C)C)C2)(C(C)C)C(C)C
- ring closure, yield of all isomers (from CC(C)[Si](Oc1cc(C[C@H](NC(=O)OC(C)(C)C)C(=O)N2CCC[C@@H](C(=O)O)N2)cc(-c2ccc3[nH]c(I)c(CC(C)(C)CO)c3c2)c1)(C(C)C)C(C)C, ester bond, EDCl/HOBt/DIPEA, DCM, 22.8 mM, 25.0 °C, 16.0 h): 50%

Structure (SMILES): Cc1nc(N2CCC3(CC2)CO[C@@H](C)[C@H]3N)c(CO)nc1-c1cccc(Cl)c1Cl [RMC-4550]
- TGI [1]: 39%

Structure (SMILES): CCn1c(-c2cc(N3CCN(C)CC3)cnc2[C@H](C)OC)c2c3cc(ccc31)-c1csc(n1)C[C@H](NC(=O)[C@H](C1CCCC1)N(C)C(=O)[C@@H]1OCC[C@@H]1c1ccccc1)C(=O)N1CCC[C@H](N1)C(=O)OCC(C)(C)C2 (atropisomer, axis not shown) [Compound A593]
- pIC50 (NRAS Q61R; [3]): 7.00 to 8.00
- pIC50 (Capan-1 (K-Ras G12V)): > 8.00
- pIC50 (NCI-H358 (K-Ras G12C)): > 8.00

Structure (SMILES): CCn1c(-c2cccnc2[C@H](C)OC)c2c3cc(ccc31)-c1csc(n1)C[C@H](NC(=O)OC(C)(C)C)C(=O)N1CCC[C@H](N1)C(=O)OCC(C)(C)C2
- ring closure, yield of all isomers (from CCn1c(-c2cccnc2[C@H](C)OC)c(CC(C)(C)CO)c2cc(-c3csc(C[C@H](NC(=O)OC(C)(C)C)C(=O)N4CCC[C@@H](C(=O)O)N4)n3)ccc21, ester bond, EDCl/HOBt/DIPEA, DCM, 12.65 mM, 25.0 °C, 16.0 h): 81%

Structure (SMILES): CCn1c(-c2cccnc2[C@H](C)OC)c2c3cc(ccc31)-c1cc(cc(NC(C)=O)c1)C[C@H](NC(=O)[C@H](C(C)C)N(C)C(C)=O)C(=O)N1CCC[C@H](N1)C(=O)OCC(C)(C)C2 (racemic) [Compound A145]
- pIC50 (KRAS G12C): < 5.00
- pIC50 (KRAS Q61H): 5.00 to 6.00
- pIC50 (NRAS Q61K): < 5.00
- pIC50 (NRAS Q61R): < 5.00
- pIC50 (NRAS WT): < 5.00

Structure (SMILES): CCn1c(-c2cc(N3CCN(C)CC3)cnc2[C@H](C)OC)c2c3cc(ccc31)-c1csc(n1)C[C@H](NC(=O)[C@H](C(C)C)N(C)C(=O)N1CC(C3COC3)C1)C(=O)N1CCC[C@H](N1)C(=O)OCC(C)(C)C2 (atropisomer, axis not shown) [Compound A465]
- pIC50 (NRAS Q61K; [4]): 7.00 to 8.00
- pIC50 (NRAS Q61R; [3]): 7.00 to 8.00
- pIC50 (Capan-1 (K-Ras G12V)): > 8.00
- pIC50 (NCI-H358 (K-Ras G12C)): > 8.00

Structure (SMILES): C=CC(=O)N1CCN(c2nc(=O)n(-c3c(C)ccnc3C(C)C)c3nc(-c4c(O)cccc4F)c(F)cc23)[C@@H](C)C1 [AMG510]
- sensitivity of SWi573 to inhibitor (SWi573): insensitive

Structure (SMILES): CCn1c(-c2cc(N3CCN(C)CC3)cnc2[C@H](C)OC)c2c3cc(ccc31)-c1csc(n1)C[C@H](NC(=O)[C@H](C(C)C)N(C)C(=O)[C@@H]1OCC[C@@H]1c1ccncc1)C(=O)N1CCC[C@H](N1)C(=O)OCC(C)(C)C2 (atropisomer, axis not shown) [Compound A450]
- pIC50 (NRAS Q61K; [4]): 7.00 to 8.00
- pIC50 (NRAS Q61R; [3]): 7.00 to 8.00
- pIC50 (Capan-1 (K-Ras G12V)): > 8.00
- pIC50 (NCI-H358 (K-Ras G12C)): > 8.00
